Source: US20160000823A1, “METHODS AND COMPOSITIONS FOR IMPROVING HEMOSTASIS” (Mast Therapeutics, Inc., priority 2014, published 2016)
“Also recorded” adds a separate entry of the source.

Experiments:
t-PA induced bleeding = test: Rat tail bleeding model with tissue plasminogen activator; type: in vivo
Procedure: Tissue plasminogen activator (t-PA) is used clinically to lyse occlusive thrombi. Bleeding complications that result from the unwanted lysis of hemostatic clots limits its use. TA is a synthetic derivative of the amino acid lysine that acts as a fibrinolytic inhibitor and is used clinically to antagonize unwanted bleeding. The effect oft-PA induced bleeding and its antagonism with TA was assessed in a rat tail bleeding model. Rats were anaesthetized by intraperitoneal injection of pentobarbital at 50 mg/kg. The thrombolytic agent t-PA was intravenously injected at a dose of 1 mg/kg, alone or in combination with TA at a dose of 5 mg/kg or 10 mg/kg. Another group of rats were administered 5 mg/kg TA alone. Control rats were administered saline. Each treatment group contained 7-10 rats.
Following treatment, rat tails were amputated about 4 mm from the tip and the tails were immersed in normal saline at 37° C. The bleeding time was determined as the time for complete cessation of blood flow from the amputated tail by visual inspection.
The relative ability of P188 to antagonize t-PA induced bleeding (compared to TA) was studied by evaluating P188 in the same rat tail bleeding model as described in Example 3. […]
Rat tails were amputated about 4 mm from the tip and the tails were immersed in normal saline at 37° C. and bleeding time was assessed as described in Example 3. […]

[1] = tested on: embolic middle cerebral artery occlusion; test: Embolic MCAO stroke model: adhesive removal test; type: in vivo, rat
Procedure: (§1) tPA is an effective treatment for acute stroke. Its use is limited by a narrow treatment window (3.5-4.5 hours from onset of stroke) and a greater risk of intracerebral hemnorrhage. […] To show this, the effects of administration of tPA alone, and tPA in combination with P188 were studied in a rat model of embolic middle cerebral artery occlusion. Male Wistar rats (N=10), 3-4 months old and weighing 350-400 g were subjected to embolic middle cerebral artery occlusion (MCAO) as described by Zhang (Zhang R L et al. A rat model of focal embolic cerebral ischemia. Brain Res. 1997, 766:83-92). Following occlusion, neurologic deficit was assessed 30 minutes after MCAO using a 5 point neurological scale (Longa scale; Longa et al., (1989) Stroke 20:84-91).
(§2) To compare the two treatments, P188 in combination with tPA and tPA alone were administered according to the schedule provided in Table 2. The dose of P188 was administered in a volume of 1.0 ml infused over a period of 1 hr by intravenous (IV) infusion via a tail vein. […] At 1 and 7 days after stroke onset (MCAO), clinical neurological function was assessed using the adhesive removal test and modified neurological severity score (mNSS) (Li Y, Chen J, Wang L, Lu M, Chopp M. Treatment of stroke with intracarotid administration of marrow stromal cells. Neurology 2001, 56: 1666-1672). […]

[2] = tested on: embolic middle cerebral artery occlusion; test: Embolic MCAO stroke model: modified neurological severity score (mNSS); type: in vivo, rat; settings: same schedule
Procedure: as §1, §2

[3] = tested on: embolic middle cerebral artery occlusion; test: Embolic MCAO stroke model: lesion volume; type: in vivo, rat; settings: day 7 after MCAO, H&E coronal sections
Procedure: as §1, §2

[4] = tested on: embolic middle cerebral artery occlusion; test: Embolic MCAO stroke model: gross hemorrhage; type: in vivo, rat; settings: day 7 after MCAO, n=10 per group
Procedure: as §1
To compare the two treatments, P188 in combination with tPA and tPA alone were administered according to the schedule provided in Table 2. […] At 1 and 7 days after stroke onset (MCAO), clinical neurological function was assessed using the adhesive removal test and modified neurological severity score (mNSS) (Li Y, Chen J, Wang L, Lu M, Chopp M. Treatment of stroke with intracarotid administration of marrow stromal cells. Neurology 2001, 56: 1666-1672). […]
The harvested brains also were assessed for the incidence of gross hemorrhage, defined as blood evident to the unaided eye on the H&E stained coronal sections. […]

Molecule | bleeding time of amputated tail (t-PA induced bleeding; t-PA alone 1 mg/kg IV, versus saline) | average time to tape removal ([1]; day 1 after MCAO, tPA 10 mg/kg IV at 4 hr, P188 300 mg/kg IV at 3.5 hr and 2,000 mg/kg ip at 9.5 hr) | average time to tape removal ([1]; day 7 after MCAO, same schedule) | average mNSS score ([2]; 1 day after MCAO) | average mNSS score ([2]; 7 days after MCAO) | average lesion volume [3] | animals exhibiting gross hemorrhage [4] | t-PA induced bleeding (t-PA induced bleeding; t-PA 1 mg/kg IV in combination with TA 5 or 10 mg/kg (FIG. 14))
tissue plasminogen activator [t-PA] | marked prolongation of bleeding time; also recorded: increased bleeding time | approximately 120 seconds | approximately 100 seconds | approximately 10.5 | approximately 8.5 | approximately 35 % of contralateral hemisphere | 30% | 
NC[C@H]1CC[C@H](C(=O)O)CC1 [TA, tranexamic acid, reference compound] |  |  |  |  |  |  |  | dose dependent reduction
